In patent publication US6825230B2, “Spiro and dispiro 1,2,4-trixolane antimalarials” (Medicines for Malaria Venture MMV, priority 2002, dated 2004):
Converted amounts (≈) assume the structure as drawn. Structures can show the parent of a compound that is named as a salt. Where two headings read alike, the source gives them in different places.

Columns and labels:
[1] = system: chloroquine-resistant K1 strain of P. falciparum; experiment: In vitro antimalarial semiautomated microdilution assay ([3H]-hypoxanthine incorporation), K1 strain; format: cell-based, Plasmodium falciparum; conditions: Plasmodium falciparum
How it was run: (§1)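 Logit regression analysis yields the fifty percent inhibitory concentration. Compounds are tested by semiautomated microdilution on intraerythrocytic parasites drawn from asynchronous stock cultures, measuring [3H]-hypoxanthine incorporation.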

[2] = system: chloroquine-sensitive NF54 strain of P. falciparum; experiment: In vitro antimalarial semiautomated microdilution assay ([3H]-hypoxanthine incorporation), NF54 strain; format: cell-based, Plasmodium falciparum; conditions: Plasmodium falciparum
How it was run: as §1

[3] = system: ANKA strain of P. berghei; experiment: Single dose STI in vivo screen in infected mice; design: species or system Plasmodium berghei; conditions: for Survival (days) 10 mg/kg po: single 10 mg/kg po in 3% ethanol and 7% Tween 80; for Survival (days) 10 mg/kg po / Survival (days) 10 mg/kg SSV po / Survival (days) 10 mg/kg sc: untreated 6-7 days; for Survival (days) 10 mg/kg SSV po: single 10 mg/kg po in SSV; for Survival (days) 10 mg/kg sc: single 10 mg/kg sc in 3% ethanol and 7% Tween 80
[4] = K1, 72 h, read-out: IC50 (ng/ml) K1, chloroquine-resistant K1 strain, 72 h incubation
[5] = NF54, 72 h, read-out: IC50 (ng/ml) NF54, chloroquine-sensitive NF54 strain, 72 h incubation
[6] = single 10 mg/kg po in 3% ethanol and 7% Tween 80 on day 1 post-infection, percent reduction in parasitemia on day 3
[7] = single 10 mg/kg po in standard suspending vehicle (SSV) on day 1 post-infection, percent reduction in parasitemia on day 3
[8] = single 10 mg/kg sc in 3% ethanol and 7% Tween 80 on day 1 post-infection, percent reduction in parasitemia on day 3
[9] = chloroquine-resistant K1 strain, 72 h incubation, read-out: IC50 (ng/ml) K1
[10] = chloroquine-sensitive NF54 strain, 72 h incubation, read-out: IC50 (ng/ml) NF54

SMILES	IC50 [1, 4]	IC50 [2, 5]	Survival (days) 10 mg/kg po [3]	Activity (%) 10 mg/kg po [3, 6]	Survival (days) 10 mg/kg SSV po [3]	Activity (%) 10 mg/kg SSV po [3, 7]	Survival (days) 10 mg/kg sc [3]	Activity (%) 10 mg/kg sc [3, 8]	IC50 [1, 9]	IC50 [2, 10]	Activity (%) 10 mg/kg SSV po ([3]; po, 10 mg/kg)	Activity (%) 10 mg/kg po ([3]; po, 10 mg/kg)	Activity (%) 10 mg/kg sc ([3]; sc, 10 mg/kg)
CN(C)S(=O)(=O)N1CCC2(CC1)OOC1(O2)C2CC3CC(C2)CC1C3 (centres unmarked) [OZ190, Adamantane-2-spiro-3′-8′-(dimethylaminosulfonyl)-1′,2′,4′-trioxa-8′-azaspiro[4.5]decane]	0.16 ng/mL (≈ 0.43 nM)	1 ng/mL (≈ 2.68 nM)	8.7 days	98%	7.7 days	78%	5.7 days	2%	–	–	–	–	–
N=C(N)N1CCC2(CC1)OOC1(O2)C2CC3CC(C2)CC1C3 (centres unmarked) [OZ191, Adamantane-2-spiro-3′-8′-amidino-1′,2′,4′-trioxa-8′-azaspiro[4.5]decane hydrochloride]	6 ng/mL	> 10 ng/mL	5.7 days	7%	5.7 days	5%	6.0 days	17%	–	–	–	–	–
Fc1ccc(OC2CCC3(CC2)OOC2(O3)C3CC4CC(C3)CC2C4)cc1 (centres unmarked) [OZ193]	5.5 ng/mL (≈ 14.7 nM)	8.3 ng/mL (≈ 22.2 nM)	9.3 days	99.75%	8.0 days	93%	11.0 days	99.92%	–	–	–	–	–
O=C(O)CCC(=O)N[C@H]1CC[C@]2(CC1)OOC1(O2)C2CC3CC(C2)CC1C3 (some centres unmarked) [OZ196]	> 10 ng/mL	> 10 ng/mL	6.0 days	10%	5.3 days	0%	5.7 days	17%	–	–	–	–	–
O=C(O)c1cccc([C@H]2CC[C@]3(CC2)OOC2(O3)C3CC4CC(C3)CC2C4)c1 (some centres unmarked) [OZ198]	> 10 ng/mL	> 10 ng/mL	5.7 days	4%	6.0 days	6%	5.7 days	6%	–	–	–	–	–
CCS(=O)(=O)CCN1CCC2(CC1)OOC1(O2)C2CC3CC(C2)CC1C3 (centres unmarked) [OZ200, Adamantane-2-spiro-3′-8′-[2′-(ethylsulfonyl)ethyl]-1′,2′,4′-trioxa-8′-azaspiro[4.5]decane]	1 ng/mL (≈ 2.59 nM)	2.9 ng/mL (≈ 7.52 nM)	7.0 days	81%	7.3 days	78%	8.0 days	92%	–	–	–	–	–
Fc1ccc(NC2CCC3(CC2)OOC2(O3)C3CC4CC(C3)CC2C4)cc1 (centres unmarked) [OZ201]	2 ng/mL (≈ 5.36 nM)	3.1 ng/mL (≈ 8.3 nM)	13 days	100/100/100%	10.3 days	100/100/100%	25 days	100/100/100%	–	–	–	–	–
CC(=O)OC(C)(C)C(=O)N[C@H]1CC[C@]2(CC1)OOC1(O2)C2CC3CC(C2)CC1C3 (some centres unmarked) [OZ202]	6 ng/mL (≈ 14.7 nM)	7.9 ng/mL (≈ 19.4 nM)	7.0 days	79%	7.3 days	51%	7.3 days	74%	–	–	–	–	–
O=C(N1CCCC1)N1CCC2(CC1)OOC1(O2)C2CC3CC(C2)CC1C3 (centres unmarked) [OZ203, Adamantane-2-spiro-3′-8′-(1′-pyrrolidinylcarbonyl)-1′,2′,4′-trioxa-8′-azaspiro[4.5]decane]	3.9 ng/mL (≈ 10.8 nM)	6.7 ng/mL (≈ 18.5 nM)	7.3 days	87%	8.7 days	99.42%	9.7 days	99.72%	–	–	–	–	–
COC(=O)c1ccc(C[C@H]2CC[C@]3(CC2)OOC2(O3)C3CC4CC(C3)CC2C4)cc1 (some centres unmarked) [OZ204]	> 10 ng/mL	> 10 ng/mL	6.0 days	0/0/0%	6.3 days	0/0/0%	6.0 days	0/0/0%	–	–	–	–	–
O=C1CNC(=O)N1C[C@H]1CC[C@]2(CC1)OOC1(O2)C2CC3CC(C2)CC1C3 (some centres unmarked) [OZ206]	1 ng/mL (≈ 2.66 nM)	2.7 ng/mL (≈ 7.17 nM)	8.0 days	93%	8.7 days	92%	9.7 days	91%	–	–	–	–	–
CCOC(=O)c1cccc([C@H]2CC[C@]3(CC2)OOC2(O3)C3CC4CC(C3)CC2C4)c1 (some centres unmarked) [OZ208]	–	–	6.3 days	0%	6.7 days	29%	5.7 days	10%	6 ng/mL (≈ 14.5 nM)	6.5 ng/mL (≈ 15.8 nM)	–	–	–
O=S(=O)(C[C@H]1CC[C@]2(CC1)OOC1(O2)C2CC3CC(C2)CC1C3)c1ccccc1 (some centres unmarked) [OZ210]	–	–	9.3 days	99.23%	8.0 days	77%	10.3 days	99.94%	1.4 ng/mL (≈ 3.34 nM)	1.6 ng/mL (≈ 3.82 nM)	–	–	–
c1cnn(C[C@H]2CC[C@]3(CC2)OOC2(O3)C3CC4CC(C3)CC2C4)c1 (some centres unmarked) [OZ211]	–	–	8.0 days	82%	7.3 days	78%	8.7 days	99.90%	1 ng/mL (≈ 2.9 nM)	1.2 ng/mL (≈ 3.48 nM)	–	–	–
O=C1c2ccccc2S(=O)(=O)N1C[C@H]1CC[C@]2(CC1)OOC1(O2)C2CC3CC(C2)CC1C3 (some centres unmarked) [OZ212]	–	–	6.7 days	66%	6.7 days	25%	8.0 days	59%	2.7 ng/mL (≈ 5.88 nM)	2.9 ng/mL (≈ 6.31 nM)	–	–	–
CONC(=O)C[C@H]1CC[C@]2(CC1)OOC1(O2)C2CC3CC(C2)CC1C3 (some centres unmarked) [OZ213]	–	–	8.0/8.0/8.0 days	83%	8.0/8.0/8.0 days	74%	8.0/8.0/8.0 days	85%	2.3 ng/mL (≈ 6.54 nM)	2.8 ng/mL (≈ 7.97 nM)	–	–	–
O=C(O)c1ccc(C[C@H]2CC[C@]3(CC2)OOC2(O3)C3CC4CC(C3)CC2C4)cc1 (some centres unmarked) [OZ214]	–	–	6.3 days	44%	7.3 days	54%	7.7 days	65%	> 10 ng/mL	> 10 ng/mL	–	–	–
O=C1c2ccccc2C(=O)N1CC[C@H]1CC[C@]2(CC1)OOC1(O2)C2CC3CC(C2)CC1C3 (some centres unmarked) [OZ215]	–	–	9.7 days	–	6.3 days	–	7.0 days	–	6.4 ng/mL (≈ 14.6 nM)	7.3 ng/mL (≈ 16.7 nM)	25%	96%	39%
c1cc(CN2CCC3(CC2)OOC2(O3)C3CC4CC(C3)CC2C4)ccn1 (centres unmarked) [OZ216, Adamantane-2-spiro-3′-8′-(4′-pyridinylmethyl)-1′,2′,4′-trioxa-8′-azaspiro[4.5]decane]	–	–	6.3 days	62%	7.7 days	69%	11.0 days	99.02%	0.4 ng/mL (≈ 1.12 nM)	0.67 ng/mL (≈ 1.88 nM)	–	–	–
O=C(C[C@H]1CC[C@]2(CC1)OOC1(O2)C2CC3CC(C2)CC1C3)Nc1nccs1 (some centres unmarked) [OZ217]	–	–	7.0 days	67%	6.0 days	8%	8.0 days	98%	2 ng/mL (≈ 4.94 nM)	2 ng/mL (≈ 4.94 nM)	–	–	–
O=C(C[C@H]1CC[C@]2(CC1)OOC1(O2)C2CC3CC(C2)CC1C3)N1CCCCC1 (some centres unmarked) [OZ218]	–	–	10.0 days	98%	14.3 days	99.30%	9.0 days	99.68%	2 ng/mL (≈ 5.13 nM)	3 ng/mL (≈ 7.7 nM)	–	–	–
c1ccc(CN2CCC3(CC2)OOC2(O3)C3CC4CC(C3)CC2C4)cc1 (centres unmarked) [OZ220, Adamantane-2-spiro-3′-8′-benzyl-1′,2′,4′-trioxa-8′-azaspiro[4.5]decane]	–	–	6.0 days	40%	5.3 days	0%	10.0 days	99.95%	6.9 ng/mL (≈ 19.4 nM)	4.9 ng/mL (≈ 13.8 nM)	–	–	–
